Results from paper PMC10417023, “Imidazole-4-N-acetamide Derivatives as a Novel Scaffold for Selective Targeting of Cyclin Dependent Kinases” (Cancers, 2023).
Read-outs that look alike come from different tables or passages of the source. Blank lines part the entries; values can stand above or below the molecule they belong to.

Tests used:
Experiment in all cases: […]-ATP radiometric filter-binding kinase assay
Format in all cases: biochemical
CDK5/p35 = target: T1, CDK5/p35 (Homo sapiens, UniProt Q00535)
T1 construct: purified CDK5/p35 complex
T1 sequence (Q00535 whole entry): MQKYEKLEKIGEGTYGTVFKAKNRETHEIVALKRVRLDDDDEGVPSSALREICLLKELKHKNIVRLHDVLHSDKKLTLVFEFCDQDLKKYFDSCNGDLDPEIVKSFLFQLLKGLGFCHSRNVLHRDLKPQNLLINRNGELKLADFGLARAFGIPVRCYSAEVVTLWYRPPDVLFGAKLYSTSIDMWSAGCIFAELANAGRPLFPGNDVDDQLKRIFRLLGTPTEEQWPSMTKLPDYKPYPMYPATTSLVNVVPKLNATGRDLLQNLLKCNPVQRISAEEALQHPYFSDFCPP
T1 sequence (Q15078 2-307 partner): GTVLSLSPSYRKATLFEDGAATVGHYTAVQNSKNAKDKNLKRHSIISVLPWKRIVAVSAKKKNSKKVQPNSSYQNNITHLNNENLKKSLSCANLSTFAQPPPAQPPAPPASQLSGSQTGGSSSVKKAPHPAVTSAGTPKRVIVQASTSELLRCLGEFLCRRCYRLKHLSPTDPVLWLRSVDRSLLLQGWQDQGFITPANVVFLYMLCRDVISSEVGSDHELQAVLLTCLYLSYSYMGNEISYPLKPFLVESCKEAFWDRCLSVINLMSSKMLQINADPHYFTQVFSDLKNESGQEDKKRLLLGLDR

CDK9/cyclin K = target: T2, CDK9/cyclin K (Homo sapiens, UniProt P50750)
T2 construct: purified CDK9/cyclin K complex; with Cyclin-K
T2 sequence (P50750 whole entry): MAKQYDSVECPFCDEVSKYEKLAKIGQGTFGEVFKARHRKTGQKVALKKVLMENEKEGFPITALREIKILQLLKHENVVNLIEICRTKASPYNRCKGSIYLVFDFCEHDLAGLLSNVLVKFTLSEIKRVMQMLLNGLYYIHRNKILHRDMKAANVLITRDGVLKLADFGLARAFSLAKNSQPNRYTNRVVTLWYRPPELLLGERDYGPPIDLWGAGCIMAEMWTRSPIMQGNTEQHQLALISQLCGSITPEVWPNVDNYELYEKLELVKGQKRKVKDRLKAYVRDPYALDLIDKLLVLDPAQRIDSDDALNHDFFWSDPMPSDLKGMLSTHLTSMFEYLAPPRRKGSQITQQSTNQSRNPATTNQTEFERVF
T2 sequence (O75909 whole entry partner): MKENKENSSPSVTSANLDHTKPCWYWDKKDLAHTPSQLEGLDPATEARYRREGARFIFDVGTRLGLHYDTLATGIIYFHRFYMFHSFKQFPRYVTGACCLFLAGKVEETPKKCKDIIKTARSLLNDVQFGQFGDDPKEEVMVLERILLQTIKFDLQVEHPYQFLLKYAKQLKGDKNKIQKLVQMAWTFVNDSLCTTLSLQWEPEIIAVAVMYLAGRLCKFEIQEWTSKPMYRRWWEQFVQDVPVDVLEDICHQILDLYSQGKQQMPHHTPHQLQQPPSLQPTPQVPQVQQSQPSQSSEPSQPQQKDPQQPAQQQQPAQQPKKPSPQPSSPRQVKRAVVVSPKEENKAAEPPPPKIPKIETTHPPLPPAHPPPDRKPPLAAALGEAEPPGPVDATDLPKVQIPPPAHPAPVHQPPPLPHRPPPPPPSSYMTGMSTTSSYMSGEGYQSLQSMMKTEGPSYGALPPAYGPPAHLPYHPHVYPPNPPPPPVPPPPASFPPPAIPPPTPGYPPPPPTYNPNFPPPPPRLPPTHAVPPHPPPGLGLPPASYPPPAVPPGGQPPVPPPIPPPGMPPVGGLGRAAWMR

CDK2/cyclin E = target: T3, CDK2/cyclin E (Homo sapiens, UniProt P24941)
T3 construct: purified CDK/cyclin complex; with G1/S-specific cyclin-E1

CDK1/cyclin E = target: T4, CDK1/cyclin E (Homo sapiens, UniProt P06493)
T4 construct: purified CDK/cyclin complex; with G1/S-specific cyclin-E1
T4 sequence (P06493 whole entry): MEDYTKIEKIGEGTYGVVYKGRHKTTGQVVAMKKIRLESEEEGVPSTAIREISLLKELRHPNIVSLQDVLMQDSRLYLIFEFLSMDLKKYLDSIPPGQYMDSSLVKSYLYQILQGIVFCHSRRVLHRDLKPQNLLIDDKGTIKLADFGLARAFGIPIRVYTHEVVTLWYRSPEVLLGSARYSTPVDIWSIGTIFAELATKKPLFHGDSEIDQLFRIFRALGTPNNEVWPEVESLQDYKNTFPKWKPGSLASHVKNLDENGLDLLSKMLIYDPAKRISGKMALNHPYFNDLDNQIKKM
T4 sequence (P24864 whole entry partner): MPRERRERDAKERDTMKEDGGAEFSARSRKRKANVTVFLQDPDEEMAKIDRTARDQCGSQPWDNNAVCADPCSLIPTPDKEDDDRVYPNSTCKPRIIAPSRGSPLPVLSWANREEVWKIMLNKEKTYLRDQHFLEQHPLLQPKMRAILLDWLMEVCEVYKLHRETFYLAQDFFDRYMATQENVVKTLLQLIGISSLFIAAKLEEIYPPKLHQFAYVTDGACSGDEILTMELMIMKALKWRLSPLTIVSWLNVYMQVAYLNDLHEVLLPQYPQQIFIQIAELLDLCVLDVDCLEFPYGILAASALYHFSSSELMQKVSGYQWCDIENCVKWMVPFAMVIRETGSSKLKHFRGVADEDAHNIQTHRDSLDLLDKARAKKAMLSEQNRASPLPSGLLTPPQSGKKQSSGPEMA

IC50 (CDK5/p35; read-out: Compound 4): 20 µM | IC50 (CDK9/cyclin K; read-out: Compound 4): 0.88 µM | IC50 (CDK2/cyclin E; read-out: Compound 4): 0.27 µM | IC50 (CDK1/cyclin E; read-out: Compound 4): 6.2 µM
SMILES: CC(C)n1cnc(NC(=O)Cc2ccccn2)c1 [compound 4, Compound 4]

IC50 (CDK5/p35; read-out: Compound 2): 0.88 µM | IC50 (CDK9/cyclin K; read-out: Compound 2): 1 µM | IC50 (CDK2/cyclin E; read-out: Compound 2): 0.16 µM | IC50 (CDK1/cyclin E; read-out: Compound 2): 0.72 µM
SMILES: CC(C)n1cnc(NC(=O)Cc2ccccc2O)c1 [compound 2, Compound 2]

IC50 (CDK5/p35; read-out: Compound 1): 40 µM | IC50 (CDK9/cyclin K; read-out: Compound 1): 3 µM | IC50 (CDK2/cyclin E; read-out: Compound 1): 0.71 µM | IC50 (CDK1/cyclin E; read-out: Compound 1): 14 µM
SMILES: CC(C)n1cnc(NC(=O)Cc2ccccc2)c1 [compound 1, Compound 1]

IC50 (CDK5/p35; read-out: Compound 3): 79 µM | IC50 (CDK9/cyclin K; read-out: Compound 3): 4.3 µM | IC50 (CDK2/cyclin E; read-out: Compound 3): 1.2 µM | IC50 (CDK1/cyclin E; read-out: Compound 3): 30 µM
SMILES: CC(C(=O)Nc1cn(C(C)C)cn1)c1ccccc1 (racemic) [compound 3, Compound 3]
